Test results: ChEMBL document CHEMBL1201862, “PubChem BioAssay data set” (2004)
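Following 48 hours of exposure in 96-well plates, responses at five concentrations were used to interpolate endpoints linearly. GI50: concentration for 50% inhibition of growth.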 Activity calls are given as the source filed them. Cut-off read from the data, not from the text of the source: active = GI50 up to about 1.1 µM and inactive = higher.

How the values were obtained:
Test in all cases: NCI-60 cell line screen, 48 h
ACHN = system: ACHN
COLO 205 = system: COLO 205
HOP-92 = system: HOP-92
K562 = system: K562
KM12 = system: KM12
LOX IMVI = system: LOX IMVI
Malme-3M = system: Malme-3M
NCI-H522 = system: NCI-H522
OVCAR-8 = system: OVCAR-8
SF-295 = system: SF-295
SK-MEL-28 = system: SK-MEL-28
SNB-75 = system: SNB-75
SR = system: SR
UACC-62 = system: UACC-62
A498 = system: A498
CCRF-CEM = system: CCRF-CEM
HL-60 = system: HL-60
Hs-578T = system: Hs-578T
MCF7 = system: MCF7

Compound	GI50 (ACHN)	GI50 (COLO 205)	GI50 (HOP-92)	GI50 (K562)	GI50 (KM12)	GI50 (LOX IMVI)	GI50 (Malme-3M)	GI50 (NCI-H522)	GI50 (OVCAR-8)	GI50 (SF-295)	GI50 (SK-MEL-28)	GI50 (SNB-75)	GI50 (SR)	GI50 (UACC-62)	GI50 (A498)	GI50 (CCRF-CEM)	GI50 (HL-60)	GI50 (Hs-578T)	GI50 (MCF7)
C/C(=C\CBr)CCC(Br)C(C)(C)Cl (stereo not given)	> 100 µM (inactive)	> 100 µM (inactive)	> 100 µM (inactive)	> 100 µM (inactive)	> 100 µM (inactive)	> 100 µM (inactive)	> 100 µM (inactive)	> 100 µM (inactive)	> 100 µM (inactive)	> 100 µM (inactive)	> 100 µM (inactive)	> 100 µM (inactive)	> 100 µM (inactive)	> 100 µM (inactive)					
CCNCCNC(=O)c1ccc(I)cc1	> 100 µM (inactive)		99.8 µM (inactive)	> 100 µM (inactive)	> 100 µM (inactive)	> 100 µM (inactive)			> 100 µM (inactive)		> 100 µM (inactive)	34.4 µM (inactive)	> 100 µM (inactive)	> 100 µM (inactive)	> 100 µM (inactive)	> 100 µM (inactive)	> 100 µM (inactive)	81.8 µM (inactive)	> 100 µM (inactive)
COc1cccc(/C=N\NC(=O)C(C)SC(C)C(=O)N/N=C/c2cccc(OC)c2)c1 (stereo not given)	18.9 µM (inactive)	24.6 µM (inactive)	20.8 µM (inactive)	> 78.3 µM (inactive)	31.5 µM (inactive)	> 10 µM (inactive)	42 µM (inactive)	22.3 µM (inactive)	28.4 µM (inactive)	32.2 µM (inactive)	36.6 µM (inactive)	16.9 µM (inactive)	40.5 µM (inactive)	> 54.2 µM (inactive)	13 µM (inactive)	31.9 µM (inactive)	> 62.1 µM (inactive)		
COc1cc(OC(C)=O)cc2c(OC(C)=O)ccc(OC(C)=O)c12	> 100 µM (inactive)		17.1 µM (inactive)	> 100 µM (inactive)	> 100 µM (inactive)	> 100 µM (inactive)		> 100 µM (inactive)	> 100 µM (inactive)	> 100 µM (inactive)	> 100 µM (inactive)		> 100 µM (inactive)	> 100 µM (inactive)	> 100 µM (inactive)	74.8 µM (inactive)	43.6 µM (inactive)		
COC(=O)[C@H]1NC(=O)CCSSC1(C)C	> 100 µM (inactive)	> 100 µM (inactive)	> 100 µM (inactive)	> 100 µM (inactive)	> 100 µM (inactive)	> 100 µM (inactive)	> 100 µM (inactive)	> 100 µM (inactive)	> 100 µM (inactive)	> 100 µM (inactive)	> 100 µM (inactive)			> 100 µM (inactive)	> 100 µM (inactive)	> 100 µM (inactive)	> 100 µM (inactive)	> 100 µM (inactive)	> 100 µM (inactive)
O=C(Nc1ccccc1)c1cc2ccccc2c(/N=N/c2ccc([N+](=O)[O-])cc2)c1O	> 100 µM (inactive)	> 100 µM (inactive)	99.3 µM (inactive)	35.6 µM (inactive)	> 100 µM (inactive)	> 100 µM (inactive)	> 100 µM (inactive)	> 100 µM (inactive)	> 100 µM (inactive)	38.7 µM (inactive)	> 100 µM (inactive)	73.5 µM (inactive)		65.2 µM (inactive)		4.85 µM (inactive)	1.14 µM (inactive)	55.1 µM (inactive)	
O=C1COc2cc(NC(=S)Nc3ccccc3)ccc2N1	> 100 µM (inactive)	> 100 µM (inactive)	> 100 µM (inactive)	> 100 µM (inactive)	> 100 µM (inactive)	> 100 µM (inactive)	> 100 µM (inactive)	> 100 µM (inactive)	> 100 µM (inactive)	> 100 µM (inactive)	> 100 µM (inactive)	> 100 µM (inactive)	> 100 µM (inactive)	> 100 µM (inactive)		> 100 µM (inactive)	> 100 µM (inactive)		
CCOc1ccc2c(c1)[n+]([O-])c(-c1ccc([N+](=O)[O-])cc1)c(N)[n+]2[O-]	> 100 µM (inactive)	> 100 µM (inactive)	> 100 µM (inactive)	> 100 µM (inactive)	> 100 µM (inactive)		> 100 µM (inactive)	56.4 µM (inactive)	> 100 µM (inactive)	> 100 µM (inactive)	> 100 µM (inactive)	66.4 µM (inactive)	67 µM (inactive)		> 100 µM (inactive)	49.7 µM (inactive)	96.8 µM (inactive)		
Cc1cc(N(CCC#N)CCC#N)ccc1/C=C(\N=[N+]=[N-])C(=O)NC(=O)COc1ccccc1	> 100 µM (inactive)	> 100 µM (inactive)	> 100 µM (inactive)	> 100 µM (inactive)	> 100 µM (inactive)	> 100 µM (inactive)	> 100 µM (inactive)	> 100 µM (inactive)	> 81.1 µM (inactive)	> 61.7 µM (inactive)	> 100 µM (inactive)	> 44 µM (inactive)	> 100 µM (inactive)	> 100 µM (inactive)	> 100 µM (inactive)	> 100 µM (inactive)	> 100 µM (inactive)		
COC(=O)/C=C(/C(=O)OC)C1(C)c2cc(C(=O)OC)c(C(=O)OC)c(N)c2C(=N)N1c1ccccc1 (stereo not given)	18 µM (inactive)	15.9 µM (inactive)	10.4 µM (inactive)	18.7 µM (inactive)	17.2 µM (inactive)	18.2 µM (inactive)	17.4 µM (inactive)	14.2 µM (inactive)	17.4 µM (inactive)	17.9 µM (inactive)	18.1 µM (inactive)	29.4 µM (inactive)	22.8 µM (inactive)	24.6 µM (inactive)	31.1 µM (inactive)	15.5 µM (inactive)	14.1 µM (inactive)		
O=C1NC2(CCCCC2)C2CCCCC=C12 (stereo not given)	> 100 µM (inactive)	> 100 µM (inactive)	> 100 µM (inactive)	> 100 µM (inactive)	> 100 µM (inactive)	> 100 µM (inactive)	> 100 µM (inactive)	> 100 µM (inactive)	> 100 µM (inactive)	> 100 µM (inactive)	> 100 µM (inactive)	> 100 µM (inactive)	> 100 µM (inactive)	> 100 µM (inactive)	> 100 µM (inactive)	> 100 µM (inactive)	> 100 µM (inactive)		
c1ccc(/N=C(\N2CCCC2)N(CCN2CCCC2)c2ccccc2)cc1	40 µM (inactive)	7.33 µM (inactive)	22.6 µM (inactive)	3.8 µM (inactive)	11 µM (inactive)	2.86 µM (inactive)	> 100 µM (inactive)	11.3 µM (inactive)	24.4 µM (inactive)	6.32 µM (inactive)	> 100 µM (inactive)	14.4 µM (inactive)	13.2 µM (inactive)	16.6 µM (inactive)		5.93 µM (inactive)	2.91 µM (inactive)	18.9 µM (inactive)	13.5 µM (inactive)
CCOC(=O)c1ccc(N[C@@H]2c3cc4c(cc3C(C3=CC(=O)C(=O)C(OC)=C3)[C@H]3C(=O)OCC32)OCO4)cc1 (stereo not given in full)	0.9 µM (active)	3.21 µM (inactive)	2.04 µM (inactive)	2.67 µM (inactive)	3.92 µM (inactive)	2.08 µM (inactive)	2.53 µM (inactive)	4.61 µM (inactive)	2.86 µM (inactive)	1.35 µM (inactive)	7.6 µM (inactive)	1.58 µM (inactive)	0.148 µM (active)	1.69 µM (inactive)	1.77 µM (inactive)	0.845 µM (active)	0.802 µM (active)		
COc1cc(Oc2c(O)c(C)c(OC)c(C(C)=O)c2O)c(C(C)=O)c(O)c1C	46.5 µM (inactive)	60.1 µM (inactive)	44.6 µM (inactive)		65.3 µM (inactive)	57.3 µM (inactive)	42.8 µM (inactive)	12.9 µM (inactive)	51.6 µM (inactive)	> 100 µM (inactive)	50.6 µM (inactive)	> 100 µM (inactive)	> 100 µM (inactive)	40.5 µM (inactive)		> 100 µM (inactive)			
O=C(NC1CCCCC1)c1c(O)[nH]c(=S)[nH]c1=O	83 µM (inactive)	> 100 µM (inactive)	96.8 µM (inactive)		> 100 µM (inactive)	> 100 µM (inactive)	> 100 µM (inactive)	> 100 µM (inactive)	89.7 µM (inactive)	99.3 µM (inactive)	> 100 µM (inactive)	> 100 µM (inactive)	> 100 µM (inactive)	> 100 µM (inactive)	> 100 µM (inactive)	> 100 µM (inactive)			
CC(C)(C)c1cc(C#N)c2c(c1)C(=O)OC2(c1ccccc1)c1ccccc1C#N (stereo not given)	> 100 µM (inactive)	> 100 µM (inactive)		45.4 µM (inactive)	43 µM (inactive)	> 100 µM (inactive)	> 100 µM (inactive)	12.3 µM (inactive)	> 100 µM (inactive)	78.3 µM (inactive)	> 100 µM (inactive)	42.8 µM (inactive)	20.8 µM (inactive)	> 100 µM (inactive)	> 100 µM (inactive)	> 100 µM (inactive)	7.38 µM (inactive)		
CC(C)(C)OC(=O)NC1CCC[C@H]1O (stereo not given in full)	> 100 µM (inactive)		> 100 µM (inactive)	> 100 µM (inactive)	> 100 µM (inactive)	> 100 µM (inactive)	0.265 µM (active)	> 100 µM (inactive)	> 100 µM (inactive)	> 100 µM (inactive)	> 100 µM (inactive)	47.3 µM (inactive)	> 100 µM (inactive)	> 100 µM (inactive)	> 100 µM (inactive)	> 100 µM (inactive)			
